The values that follow are results of earlier work, collected in US20200101029A1, “METHOD AND SYSTEM FOR PRESERVING COGNITIVE CAPACITY DURING AGING” (priority 2018, published 2020).

The conditions of data set [1]: 1 gram per day (500 mg twice daily).
Data set [2] deals with rat model of Alzheimer's disease.
For data set [3], the system named is mice exposed to bleomycin.
For data set [4] the following is noted: murine models.
The test system of data set [5] is genetically-engineered fly. The following applies: spermidine feeding during all their lives.
The conditions of data set [6]: human cohort study.

Like-named read-outs stand apart in the source and are kept apart here.

Regarding `O=c1c(O)c(-c2ccc(O)c(O)c2)oc2cc(O)cc(O)c12` [quercetin], in data set [1], the “patients with improvement of symptoms of at least 25 percent” value was “more than 67%” and the tolerability result is given as “well tolerated”.

For Bifidobacterium, in data set [2], the “effect on memory deficit” value is listed as “improving memory deficit”.

As to `NCCCCNCCCN` [spermidine], the “accumulation of damaging protein in the mouse lung” value in data set [3] (pre-treatment with spermidine) was “could reduce or prevent”. Also, the “removal of established scar tissue in the lung” value in data set [3] (subsequent dosing, even at higher dose) was “did not remove it”. In addition, the “safety and tolerability of supplementation” value in data set [4] is “safe and excellently tolerated”; in data set [6] it was “safe and excellently tolerated”. In addition, the “aging-associated abnormal protein (excess presynaptic vesicles in olfactory neurons)” value in data set [5] is on record as “prevented”. In addition, the “fly memory over aging” value in data set [5] is “preserved over aging”.
